Data as given in patent publication US20080280920A1, “Plasminogen Activator Inhibitor-1 Inhibitors” (priority 2005, published 2008).

Columns and labels:
Assay type in all cases: cell-based, human
[1] = system: SNB-19; assay: NCI anticancer screen, SNB-19; details: SNB-19, CNS, 48 h
[2] = system: UACC-62; assay: NCI anticancer screen, UACC-62; details: UACC-62, Melanoma, 48 h
[3] = system: OVCAR-4; assay: NCI anticancer screen, OVCAR-4; details: OVCAR-4, Ovarian, 48 h
[4] = system: HT29; assay: NCI anticancer screen, HT29; details: HT29, Colon, 48 h
[5] = system: SK-MEL-5; assay: NCI anticancer screen, SK-MEL-5; details: SK-MEL-5, Melanoma, 48 h
[6] = system: M14; assay: NCI anticancer screen, M14; details: M14, Melanoma, 48 h
[7] = system: T-47D; assay: NCI anticancer screen, T-47D; details: Breast, 48 h
[8] = system: SK-MEL-28; assay: NCI anticancer screen, SK-MEL-28; details: SK-MEL-28, Melanoma, 48 h
[9] = system: OVCAR-8; assay: NCI anticancer screen, OVCAR-8; details: OVCAR-8, Ovarian, 48 h
[10] = system: SF-268; assay: NCI anticancer screen, SF-268; details: SF-268, CNS, 48 h
[11] = system: HOP-92; assay: NCI anticancer screen, HOP-92; details: HOP-92, Non-Small Cell Lung, 48 h
[12] = system: K-562; assay: NCI anticancer screen, K-562; details: K-562, Leukemia, 48 h
[13] = system: TK-10; assay: NCI anticancer screen, TK-10; details: TK-10, Renal, 48 h
[14] = system: SN12C; assay: NCI anticancer screen, SN12C; details: Renal, 48 h
[15] = system: A549/ATCC; assay: NCI anticancer screen, A549/ATCC; details: Non-Small Cell Lung, 48 h
[16] = system: HS 578T; assay: NCI anticancer screen, HS 578T; details: Breast, 48 h
[17] = system: EKVX; assay: NCI anticancer screen, EKVX; details: Non-Small Cell Lung, 48 h
[18] = system: MDA-MB-231/ATCC; assay: NCI anticancer screen, MDA-MB-231/ATCC; details: Breast, 48 h
[19] = system: CAKI-1; assay: NCI anticancer screen, CAKI-1; details: CAKI-1, Renal, 48 h
[20] = system: SF-295; assay: NCI anticancer screen, SF-295; details: SF-295, CNS, 48 h
[21] = system: MCF7; assay: NCI anticancer screen, MCF7; details: MCF7, Breast, 48 h
[22] = system: SF-539; assay: NCI anticancer screen, SF-539; details: SF-539, CNS, 48 h
[23] = system: OVCAR-5; assay: NCI anticancer screen, OVCAR-5; details: OVCAR-5, Ovarian, 48 h
[24] = system: 786-0; assay: NCI anticancer screen, 786-0; details: 786-0, Renal, 48 h
[25] = system: COLO 205; assay: NCI anticancer screen, COLO 205; details: COLO 205, Colon, 48 h
[26] = system: RXF 393; assay: NCI anticancer screen, RXF 393; details: RXF 393, Renal, 48 h
[27] = system: KM12; assay: NCI anticancer screen, KM12; details: KM12, Colon, 48 h
[28] = system: BT-549; assay: NCI anticancer screen, BT-549; details: BT-549, Breast, 48 h
[29] = system: HCT-15; assay: NCI anticancer screen, HCT-15; details: HCT-15, Colon, 48 h
[30] = system: A498; assay: NCI anticancer screen, A498; details: A498, Renal, 48 h
[31] = system: OVCAR-3; assay: NCI anticancer screen, OVCAR-3; details: OVCAR-3, Ovarian, 48 h
[32] = system: DU-145; assay: NCI anticancer screen, DU-145; details: DU-145, Prostate, 48 h
[33] = Homo sapiens, read-out: LC50 (the source's name)

## COc1cc(CNCC2CCN(C(=O)OC(C)(C)C)CC2)cc(CN2CCN(c3ccccn3)CC2)c1O [Compound Q012132, 2-Methoxy-4-({[(N-t-butyloxycarbonylpiperidin-4-yl)methyl]amino}methyl)-6-[(4-pyridin-2-ylpiperazin-1-yl)methyl]phenol]
[1]; Homo sapiens
  GI50: 41.8 µM
[1]; [33]
  CC50: > 100 µM
[1]
  TGI: >100 µM
[2]; Homo sapiens
  GI50: 17.2 µM
[2]; [33]
  CC50: 64.3 µM
[2]
  TGI: 33.3 µM
[3]; Homo sapiens
  GI50: 47.8 µM
[3]; [33]
  CC50: > 100 µM
[3]
  TGI: >100 µM
[4]
  TGI: 16.7 µM
[4]; Homo sapiens, HT-29
  GI50: 3.11 µM
[4]; Homo sapiens, HT-29, read-out: LC50 (the source's name)
  CC50: 63 µM
[5]; Homo sapiens
  GI50: 13.1 µM
[5]; [33]
  CC50: 51.5 µM
[5]
  TGI: 26.0 µM
[6]; Homo sapiens
  GI50: 5.8 µM
[6]; [33]
  CC50: 41.9 µM
[6]
  TGI: 17.5 µM
[7]
  TGI: 44.4 µM
[7]; Homo sapiens, T47D
  GI50: 16.2 µM
[7]; Homo sapiens, T47D, read-out: LC50 (the source's name)
  CC50: > 100 µM
[8]; Homo sapiens
  GI50: 16.8 µM
[8]; [33]
  CC50: 75.5 µM
[8]
  TGI: 35.6 µM
[9]; Homo sapiens
  GI50: 22.3 µM
[9]; [33]
  CC50: > 100 µM
[9]
  TGI: 61.8 µM
[10]; Homo sapiens
  GI50: 18.5 µM
  LC50: > 100 µM
[10]
  TGI: 44.1 µM
[11]
  TGI: 26.6 µM
[11]; Homo sapiens
  GI50: 10.7 µM
  LC50 (concentration killing 50% of starting cells): 66.3 µM
[12]; Homo sapiens, K562
  GI50: 5.21 µM
[12]; Homo sapiens, K562, read-out: LC50 (the source's name)
  CC50: 73.5 µM
[12]
  TGI: 19.6 µM
[13]; Homo sapiens
  GI50: 19.5 µM
[13]; [33]
  CC50: 86.5 µM
[13]
  TGI: 41.0 µM
[14]; [33]
  CC50: > 100 µM
[14]
  TGI: >100 µM
[15]; Homo sapiens
  GI50: 31.2 µM
  LC50: > 100 µM
[15]
  TGI: >100 µM
[16]
  TGI: 38.2 µM
[16]; Homo sapiens
  GI50: 16.4 µM
[16]; [33]
  CC50: 88.6 µM
[17]; Homo sapiens
  GI50: 91.2 µM
[17]; [33]
  CC50: > 100 µM
[17]
  TGI: >100 µM
[18]
  TGI: 41.0 µM
[18]; Homo sapiens
  GI50: 17.8 µM
[18]; [33]
  CC50: 94.3 µM
[19]
  TGI: 51.7 µM
[19]; Homo sapiens
  GI50: 22.8 µM
[19]; [33]
  CC50: > 100 µM
[20]; Homo sapiens
  GI50: 19.3 µM
[20]; [33]
  CC50: 89 µM
[20]
  TGI: 41.4 µM
[21]; Homo sapiens
  GI50: 18.6 µM
[21]; [33]
  CC50: 73 µM
[21]
  TGI: 36.9 µM
[22]; Homo sapiens
  GI50: 14.6 µM
[22]; [33]
  CC50: 54.6 µM
[22]
  TGI: 28.2 µM
[23]; Homo sapiens
  GI50: 29.3 µM
[23]; [33]
  CC50: > 100 µM
[23]
  TGI: >100 µM
[24]
  TGI: 28.2 µM
[24]; Homo sapiens
  GI50: 14.9 µM
[24]; [33]
  CC50: 53.1 µM
[25]
  TGI: 34.8 µM
[25]; Homo sapiens
  GI50: 16.8 µM
[25]; [33]
  CC50: 72.1 µM
[26]; Homo sapiens
  GI50: 13.6 µM
[26]; [33]
  CC50: 67.2 µM
[26]
  TGI: 30.2 µM
[27]; Homo sapiens
  GI50: 31.6 µM
[27]; [33]
  CC50: > 100 µM
[27]
  TGI: >100 µM
[28]
  TGI: 28.9 µM
[28]; Homo sapiens
  GI50: 14.6 µM
[28]; [33]
  CC50: 57.1 µM
[29]
  TGI: 36.9 µM
[29]; Homo sapiens
  GI50: 16.8 µM
[29]; [33]
  CC50: 80.8 µM
[30]
  TGI: 36.3 µM
[30]; Homo sapiens
  GI50: 17.8 µM
[30]; [33]
  CC50: 74.1 µM
[31]; Homo sapiens
  GI50: 33.1 µM
[31]; [33]
  CC50: > 100 µM
[31]
  TGI: >100 µM
[32]
  TGI: >100 µM
[32]; Homo sapiens
  GI50: 38.8 µM
[32]; [33]
  CC50: > 100 µM
